Measurements reported in paper PMC9259591, “Irigenin, a novel lead from Iris confusa for management of Helicobacter pylori infection with selective COX-2 and HpIMPDH inhibitory potential” (Scientific Reports, 2022).
In brackets after ≈: the same amount, converted by molar mass. Several values for one entry are separate records, joined by “and”; a condition that tells them apart may be missing. Equal values may be shown once. Read-outs that look alike come from different tables or passages of the source.

Assays:
[1] = target: T1, human recombinant COX-2 (Homo sapiens, UniProt P35354); assay: COX-2 inhibitory activity, colourimetric COX inhibitor screening assay kit; assay type: biochemical
T1 construct: purchased
T1 sequence (P35354 18-604): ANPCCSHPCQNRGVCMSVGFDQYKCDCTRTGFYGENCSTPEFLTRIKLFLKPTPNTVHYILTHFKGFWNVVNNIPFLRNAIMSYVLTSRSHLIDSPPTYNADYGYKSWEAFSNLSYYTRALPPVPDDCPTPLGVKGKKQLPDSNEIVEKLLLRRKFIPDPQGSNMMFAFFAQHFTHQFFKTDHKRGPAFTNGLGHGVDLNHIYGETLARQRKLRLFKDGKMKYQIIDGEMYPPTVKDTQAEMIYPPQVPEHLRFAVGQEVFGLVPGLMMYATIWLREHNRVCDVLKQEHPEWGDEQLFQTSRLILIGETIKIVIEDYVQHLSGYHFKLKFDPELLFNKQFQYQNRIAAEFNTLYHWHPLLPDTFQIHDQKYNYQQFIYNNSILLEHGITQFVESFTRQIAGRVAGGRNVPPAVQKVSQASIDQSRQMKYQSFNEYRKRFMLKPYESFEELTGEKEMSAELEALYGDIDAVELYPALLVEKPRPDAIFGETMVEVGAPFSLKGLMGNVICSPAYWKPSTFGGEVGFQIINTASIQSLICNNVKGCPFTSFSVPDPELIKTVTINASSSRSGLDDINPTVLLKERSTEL
Description: (§1) The inhibitory COX activity was assayed colourimetrically by examining the inhibition of the ovine COX-1 and human recombinant COX-2 enzymes as described by George et al.[38], using a COX inhibitor screening assay kit. The detailed procedures were described in the supplementary file.
(§2) The inhibitory COX activity was assayed colourimetrically by examining the inhibition of the ovine COX-1 and human recombinant COX-2 enzymes as described by George et al. ^2, using a COX inhibitory screening assay kit. This assay determines the COX peroxidase activity by monitoring the appearance of N,N,N',N'-tetramethyl-p-phenylenediamine (TMPD). Assay buffer (150 μL 0.1 M Tris–HCl pH 8.0), 10 μL heme and 10μL enzyme (COX-1 or COX-2) were added in each well. Ten μL of each tested sample concentration was added to each well and incubated for 15 minutes at 37°C. After incubation, 20 μL of TMPD was added to each well. For initiating the reaction, 10 μL 10 mM arachidonic acid was added and the plates were further incubated for another 2 minutes at 37°C. For terminating the reaction, 50 μL 1 N HCl and saturated stannous chloride were added.
(§3) Reaction mixture containing assay buffer and heme acted as the blank and a mixture with either COX-1 or COX-2 assay buffer and heme acted as the 100% initial activity (IA). […] The absorbances of oxidized TMPD (blue colour) were read in ELISA plate reader at 590 nm. The % inhibition was calculated using the following formula:
(§4) COX % Inhibition= [(100%IA−Inhibitor)/ 100% IA x 100]. Where, IA: 100% initial activity.
(§5) The concentration at which the tested sample produces 50% inhibition of COX-1 and/or COX-2 (IC50) was determined. The selectivity index (SI) was calculated also as IC50 (COX-1)/ (COX-2).

[2] = target: T2, ovine COX-1 (Ovis aries, UniProt P05979); assay: COX-1 inhibitory activity, colourimetric COX inhibitor screening assay kit; assay type: biochemical
T2 construct: purchased
T2 sequence (P05979 25-600): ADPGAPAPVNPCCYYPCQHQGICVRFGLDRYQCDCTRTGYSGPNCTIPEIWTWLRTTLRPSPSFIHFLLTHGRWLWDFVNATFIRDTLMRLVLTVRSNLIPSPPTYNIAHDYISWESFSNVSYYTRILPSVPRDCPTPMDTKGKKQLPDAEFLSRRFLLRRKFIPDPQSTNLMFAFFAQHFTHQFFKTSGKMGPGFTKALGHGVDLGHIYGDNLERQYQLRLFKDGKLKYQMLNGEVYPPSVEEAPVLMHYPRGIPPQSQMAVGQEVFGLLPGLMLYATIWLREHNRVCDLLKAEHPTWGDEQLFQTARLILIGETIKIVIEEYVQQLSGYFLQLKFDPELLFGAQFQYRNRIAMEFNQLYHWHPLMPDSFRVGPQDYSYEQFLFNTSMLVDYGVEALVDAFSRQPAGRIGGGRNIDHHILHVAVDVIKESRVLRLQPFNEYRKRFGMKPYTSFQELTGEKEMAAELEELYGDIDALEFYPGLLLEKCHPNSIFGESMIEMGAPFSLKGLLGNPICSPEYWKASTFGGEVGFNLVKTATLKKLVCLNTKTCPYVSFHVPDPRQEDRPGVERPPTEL
Description: as §1, §2, §3, §4, §5

[3] = system: H. pylori ATCC 700392; assay: anti-Helicobacter pylori activity, microwell dilution method with MTT; assay type: cell-based; settings: for MIC: read-out: MIC (H. pylori)
Description: The anti-Helicobacter pylori activity of the PF and NPF as well as the isolated compounds was evaluated against H. pylori ATCC 700392 (type strain, obtained from the American Type Culture Collection unit (ATCC), using microwell dilution method and clarithromycin as standard drug[37]. The detailed procedures were described in the supplementary file.
The anti-Helicobacter pylori activity of the PF and NPF as well as the isolated compounds was evaluated against H. pylori ATCC 700392 (a type strain, obtained from the American Type Culture Collection unit (ATCC), using microwell dilution method and clarithromycin as standard drug ^1. The tested samples were prepared in dimethyl sulfoxide and successive ten twofold dilutions (125- 0.24 µg/mL) were carried out in a 96-well plate. Each microplate well included forty μL of Brain Heart Infusion growth medium and 10% fetal bovine serum (FBS), ten μL of inoculum and fifty μL of the tested sample. The plates were incubated for 3 days, in 5% oxygen, 10% carbon dioxide, 85 % nitrogen atmosphere at 37°C. Forty μL of 3- (4, 5-dimethyl-thiazol-2-yl)- 2,5-diphenyl-tetrazolium bromide (MTT) at a final concentration of 0.5 mg/mL freshly prepared in H2O was added to each well and incubated for 30 min. The bacteria were biologically active when change to purple color was observed ^1. While no change in MTT color indicated inhibition. Solvent control (DMSO) and the standard antibiotic (clarithromycin) were used as negative and positive controls, respectively. The H. pylori inhibition % was calculated using the given formula:
% Inhibition = Abs control – Abs sample × 100 /Abs control.

[4] = system: RAW 264.7 macrophage cell line (NO); assay: nitric oxide (NO) inhibitory activity in lipopolysaccharide-stimulated macrophages; assay type: cell-based, murine; settings: Mus musculus, RAW264.7, RAW 264.7 cells, 1 µg/mL lipopolysaccharide
Description: The detailed procedures were described in the supplementary file.
The cell was incubated at 37 °C in 5% carbon dioxide. RAW 264.7 cells were seeded onto a 96-well plate (1×10^5 cells/well) and incubated for 24 h. […] Followed by incubation, the cells stimulated with 1µg/mL of lipopolysaccharide for another 24 h. The supernatant was gently transferred to new 96-well plates and used for NO determination. L-N 6 - (1-iminoethyl) lysine hydrochloride), is used as standard drug. The absorbance (Abs) was measured in a microplate reader at 540 nm ^3. The percentage inhibition was calculated using the following formula:
Inhibition (%) = 1-[Control-Test] Control × 100.

COc1c(O)cc2occ(-c3ccc(O)cc3)c(=O)c2c1O [Tectorigenin (P4), 4′,5,7-trihydroxy-6-methoxyisoflavone] was tested, and the IC50 ([1]; human recombinant COX-2, ND = not detected) was 189 µM, the “SI (COX-1/COX-2)” value ([1]; selectivity index calculated as IC50 (COX-1)/(COX-2)) was 2.16 and the IC50 [2] was 407 µM. The MIC ([3]; Helicobacter pylori, ATCC700392) was 15.6 µg/mL and 52 µM, the “MIC (H. pylori)” value ([3]; concentration required for 100% inhibition, H. pylori ATCC 700392, ND = not detected) was 15.63 µg/mL (≈ 52.1 µM) and the MIC ([3]; concentration required for 100% inhibition, H. pylori ATCC 700392) was 52.05 µM (≈ 15.6 µg/mL). It also gave an IC50 [4] greater than 416 µM and an IC50 ([4]; ND = not detected) greater than 125 µg/mL.
